Data taken from ChEMBL document CHEMBL1201862, “PubChem BioAssay data set” (2004).
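In this assay, cells in 96-well plates receive the compound at five concentrations for 48 hours. Endpoints are linearly interpolated between the surrounding concentrations. The concentration for 50% growth inhibition is given as GI50.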 Activity calls are given as the source filed them. No stated cut-off is given here; in the data, active = GI50 up to about 1.1 µM and inactive = higher.

Tests used:
Experiment in all cases: inhibition of tumour cell growth, NCI panel, 48 h
M14 = system: M14
UACC-257 = system: UACC-257
OVCAR-4 = system: OVCAR-4
SR = system: SR
HT-29 = system: HT-29
SNB-75 = system: SNB-75
SK-OV-3 = system: SK-OV-3
A549 = system: A549
Hs-578T = system: Hs-578T
OVCAR-8 = system: OVCAR-8
SF-268 = system: SF-268
SK-MEL-2 = system: SK-MEL-2
COLO 205 = system: COLO 205
CCRF-CEM = system: CCRF-CEM
SNB-19 = system: SNB-19
TK-10 = system: TK-10
NCI-H522 = system: NCI-H522
HCT-15 = system: HCT-15
HCT-116 = system: HCT-116
Malme-3M = system: Malme-3M
HOP-62 = system: HOP-62
SF-295 = system: SF-295
SK-MEL-5 = system: SK-MEL-5
EKVX = system: EKVX
LOX IMVI = system: LOX IMVI
UO-31 = system: UO-31
NCI-H226 = system: NCI-H226
MOLT-4 = system: MOLT-4
MCF7 = system: MCF7
CAKI-1 = system: CAKI-1
DU-145 = system: DU-145
MDA-N = system: MDA-N
786-0 = system: 786-0
OVCAR-3 = system: OVCAR-3
BT-549 = system: BT-549
HL-60 = system: HL-60
U-251 = system: U-251
NCI-H23 = system: NCI-H23
RPMI-8226 = system: RPMI-8226
KM12 = system: KM12
PC-3 = system: PC-3
OVCAR-5 = system: OVCAR-5
NCI/ADR-RES = system: NCI/ADR-RES
MDA-MB-435 = system: MDA-MB-435
UACC-62 = system: UACC-62
T47D = system: T47D
RXF 393 = system: RXF 393
SW-620 = system: SW-620
SN12C = system: SN12C
ACHN = system: ACHN
SK-MEL-28 = system: SK-MEL-28
IGROV-1 = system: IGROV-1
K562 = system: K562
NCI-H460 = system: NCI-H460
HOP-92 = system: HOP-92
A498 = system: A498
SF-539 = system: SF-539
HCC 2998 = system: HCC 2998

SMILES: O=S1(=O)OCCCOS(=O)(=O)C1(Br)Br
- GI50 (M14): > 100 µM (inactive)
- GI50 (UACC-257): > 100 µM (inactive)
- GI50 (OVCAR-4): > 100 µM (inactive)
- GI50 (SR): > 100 µM (inactive)
- GI50 (HT-29): > 100 µM (inactive)
- GI50 (SNB-75): > 100 µM (inactive)
- GI50 (SK-OV-3): > 100 µM (inactive)
- GI50 (A549): > 100 µM (inactive)
- GI50 (Hs-578T): 62.2 µM (inactive)
- GI50 (OVCAR-8): > 100 µM (inactive)
- GI50 (SF-268): > 100 µM (inactive)
- GI50 (SK-MEL-2): > 100 µM (inactive)
- GI50 (COLO 205): > 100 µM (inactive)
- GI50 (CCRF-CEM): > 100 µM (inactive)
- GI50 (SNB-19): > 100 µM (inactive)
- GI50 (TK-10): > 100 µM (inactive)
- GI50 (NCI-H522): > 100 µM (inactive)
- GI50 (HCT-15): > 100 µM
- GI50 (HCT-116): > 100 µM (inactive)
- GI50 (Malme-3M): > 100 µM (inactive)
- GI50 (HOP-62): 0.743 µM (active)
- GI50 (SF-295): > 100 µM (inactive)
- GI50 (SK-MEL-5): > 100 µM (inactive)
- GI50 (EKVX): > 100 µM (inactive)
- GI50 (LOX IMVI): > 100 µM (inactive)
- GI50 (UO-31): > 100 µM (inactive)
- GI50 (NCI-H226): > 100 µM (inactive)
- GI50 (MOLT-4): > 100 µM (inactive)
- GI50 (MCF7): > 100 µM (inactive)
- GI50 (CAKI-1): > 100 µM (inactive)
- GI50 (DU-145): > 100 µM (inactive)
- GI50 (MDA-N): > 100 µM (inactive)
- GI50 (786-0): > 100 µM (inactive)
- GI50 (OVCAR-3): > 100 µM (inactive)
- GI50 (BT-549): > 100 µM (inactive)
- GI50 (HL-60): > 100 µM (inactive)
- GI50 (U-251): > 100 µM (inactive)
- GI50 (NCI-H23): > 100 µM (inactive)
- GI50 (RPMI-8226): > 100 µM (inactive)
- GI50 (KM12): > 100 µM (inactive)
- GI50 (PC-3): > 100 µM (inactive)
- GI50 (OVCAR-5): > 100 µM (inactive)
- GI50 (NCI/ADR-RES): > 100 µM (inactive)
- GI50 (MDA-MB-435): > 100 µM (inactive)
- GI50 (UACC-62): > 100 µM (inactive)
- GI50 (T47D): > 100 µM (inactive)
- GI50 (RXF 393): > 100 µM (inactive)
- GI50 (SW-620): > 100 µM (inactive)
- GI50 (SN12C): > 100 µM (inactive)
- GI50 (ACHN): > 100 µM (inactive)
- GI50 (SK-MEL-28): > 100 µM (inactive)

SMILES: COc1cc(/C=C2\N=C(c3ccccc3)N(c3cc4cc(Sc5ccccc5)ccc4[nH]3)C2=O)cc(OC)c1OC
- GI50 (M14): 11.4 µM (inactive)
- GI50 (UACC-257): 14.8 µM (inactive)
- GI50 (OVCAR-4): 26 µM (inactive)
- GI50 (SR): 2.18 µM (inactive)
- GI50 (HT-29): 16.1 µM (inactive)
- GI50 (SNB-75): 12.7 µM (inactive)
- GI50 (SK-OV-3): 21.6 µM (inactive)
- GI50 (A549): 19.5 µM (inactive)
- GI50 (Hs-578T): 2.72 µM (inactive)
- GI50 (OVCAR-8): 12.6 µM (inactive)
- GI50 (SF-268): 2.16 µM (inactive)
- GI50 (COLO 205): 11.3 µM (inactive)
- GI50 (CCRF-CEM): 16.9 µM (inactive)
- GI50 (SNB-19): 23.2 µM (inactive)
- GI50 (NCI-H522): 2.96 µM (inactive)
- GI50 (HCT-15): 14.4 µM
- GI50 (HCT-116): 11.7 µM (inactive)
- GI50 (IGROV-1): 15.5 µM (inactive)
- GI50 (Malme-3M): 2.96 µM (inactive)
- GI50 (HOP-62): 15 µM (inactive)
- GI50 (SF-295): 20.7 µM (inactive)
- GI50 (SK-MEL-5): 10.6 µM (inactive)
- GI50 (EKVX): 17.5 µM (inactive)
- GI50 (LOX IMVI): 11.3 µM (inactive)
- GI50 (K562): 4.25 µM (inactive)
- GI50 (UO-31): 14.3 µM (inactive)
- GI50 (NCI-H226): 12.2 µM (inactive)
- GI50 (MOLT-4): 10.1 µM (inactive)
- GI50 (MCF7): 11.5 µM (inactive)
- GI50 (CAKI-1): 17.3 µM (inactive)
- GI50 (DU-145): 15.2 µM (inactive)
- GI50 (MDA-N): 3.72 µM (inactive)
- GI50 (786-0): 12.6 µM (inactive)
- GI50 (OVCAR-3): 17.8 µM (inactive)
- GI50 (BT-549): 9.42 µM (inactive)
- GI50 (HL-60): 14.6 µM (inactive)
- GI50 (NCI-H460): 14.3 µM (inactive)
- GI50 (NCI-H23): 25.5 µM (inactive)
- GI50 (KM12): 15 µM (inactive)
- GI50 (HOP-92): 6.92 µM (inactive)
- GI50 (OVCAR-5): 25.9 µM (inactive)
- GI50 (NCI/ADR-RES): 20.2 µM (inactive)
- GI50 (MDA-MB-435): 3.84 µM (inactive)
- GI50 (UACC-62): 10.1 µM (inactive)
- GI50 (T47D): 8.17 µM (inactive)
- GI50 (A498): 13.8 µM (inactive)
- GI50 (RXF 393): 10.1 µM (inactive)
- GI50 (SF-539): 12.3 µM (inactive)
- GI50 (SW-620): 19.2 µM (inactive)
- GI50 (SN12C): 15.2 µM (inactive)
- GI50 (ACHN): 18.4 µM (inactive)
- GI50 (HCC 2998): 12.7 µM (inactive)
- GI50 (SK-MEL-28): 12.9 µM (inactive)
